# Source: ChEMBL document CHEMBL4000239, “A novel piperazine linked β-amino alcohols bearing a benzosuberone scaffolds as anti-proliferative agents” (2017)
# How the values were obtained:
# Format in all cases: functional
# [1] = system: MDA-MB-231; assay: Cytotoxicity against human MDA-MB-231 cells assessed as growth inhibition after 48 hrs by SRB assay; settings: MDA-MB-231, 48 h
# [2] = system: A549; assay: Cytotoxicity against human A549 cells assessed as growth inhibition after 48 hrs by SRB assay; settings: A549, 48 h
# [3] = Cytotoxicity against human MiaPaCa cells assessed as growth inhibition after 48 hrs by SRB assay; settings: MIA PaCa-2, 48 h
# [4] = system: HeLa; assay: Cytotoxicity against human HeLa cells assessed as growth inhibition after 48 hrs by SRB assay
SMILES,GI50 [1],GI50 [2],GI50 [3],GI50 [4]
Cc1cc2c(cc1C)C(Cl)=C(COCC(O)CN1CCCCC1)CCC2 (stereo not drawn),2100 nM,1500 nM,2600 nM,1700 nM
Cc1cc2c(cc1C)C(Cl)=C(COCC(O)CN1CCN(c3ccccc3F)CC1)CCC2 (stereo not drawn),9000 nM,6300 nM,9600 nM,7800 nM
Cc1cc2c(cc1C)C(Cl)=C(COCC(O)CN1CCSCC1)CCC2 (stereo not drawn),2900 nM,900 nM,1500 nM,1000 nM
Cc1cc2c(cc1C)C(Cl)=C(COCC(O)CN1CCN(C)CC1)CCC2 (stereo not drawn),20800 nM,18200 nM,24400 nM,16300 nM
CCOC(=O)N1CCN(CC(O)COCC2=C(Cl)c3cc(C)c(C)cc3CCC2)CC1 (stereo not drawn),7300 nM,4000 nM,7900 nM,7200 nM
Cc1cc2c(cc1C)C(Cl)=C(COCC(O)CN1CCN(c3ccc(C(F)(F)F)cc3)CC1)CCC2 (stereo not drawn),2500 nM,3000 nM,2000 nM,3800 nM
Cc1cc2c(cc1C)C(Cl)=C(COCC(O)CN1CCC(Cc3ccccc3)CC1)CCC2 (stereo not drawn),2900 nM,1800 nM,1200 nM,1400 nM
Cc1cc2c(cc1C)C(Cl)=C(COCC(O)CN1CCN(c3ccccc3)CC1)CCC2 (stereo not drawn),7800 nM,5800 nM,8800 nM,6900 nM
Cc1cc2c(cc1C)C(Cl)=C(COCC(O)CN1CCOCC1)CCC2 (stereo not drawn),7900 nM,5200 nM,5600 nM,7400 nM
COc1ccccc1N1CCN(CC(O)COCC2=C(Cl)c3cc(C)c(C)cc3CCC2)CC1 (stereo not drawn),3000 nM,2100 nM,2800 nM,2400 nM
Cc1cc2c(cc1C)C(Cl)=C(COCC(O)CN1CCN(c3ccc([N+](=O)[O-])cc3)CC1)CCC2 (stereo not drawn),10 nM,23 nM,56 nM,97 nM
COC(=O)Nc1nc2cc(C(=O)c3cccs3)ccc2[nH]1 [NOCODAZOLE],65 nM,90 nM,91 nM,86 nM
